This note sets out measurements from patent US20230271964A1, “5-AMINO-8-(4-PYRIDYL)-[1,2,4]TRIAZOLO[4,3-C]PYRIMIDIN-3-ONE COMPOUNDS FOR USE AGAINST CANCER” (ASTRAZENECA AB, priority 2020, published 2023).

Test [1] deals with human adenosine A2A receptor (Homo sapiens (Human), UniProt P29274). The experiment in a line: Adenosine receptor inhibition binding assay, [3H]ZM241385, HEK293 A2A receptor membranes. Particulars: 1 nM [3H]ZM241385, HEK293-hA2A membranes, 25° C., 1 h, Ki from IC50 by Cheng-Prusoff. Summed up: (§1)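 Membranes from BacMam-transduced HEK293 cells (0.2 µg A2A; 1.4 µg A1) incubated 1 h at 25 °C with 1 nM radioligand; A2A in 50 mM Tris-HCl pH 7.4, A1 buffer adds 100 mM NaCl, 10 mM MgCl2. Nonspecific binding: 1 µM CGS 15943 (A2A) or 1 µM DPCPX (A1). Filtration, scintillation counting; IC50 converted to Ki via Cheng-Prusoff.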

The next test has as its target human CB1 receptor (Homo sapiens (Human), UniProt P21554). As to the kind of experiment: CB1 receptor antagonism, agonist-induced cAMP modulation (HTRF) in transfected CHO cells. The class given is cell-based. The following applies: read-out: Antag IC50. As to the method:
Receptor antagonism: Evaluation of the antagonist activity of compounds at the human CB1 receptor expressed in transfected CHO cells, determined by measuring their effects on agonist-induced cAMP modulation using the HTRF detection method.
Thereafter, the reference agonist CP 55940 and the adenylyl cyclase activator NKH 477 are added at respective final concentrations of 3 nM and 3 µM.
For basal control measurements, CP 55940 is omitted from the wells containing 3 µM AM 281.
Following 20 min incubation at 37° C., the cells are lysed and the fluorescence acceptor (D2-labeled cAMP) and fluorescence donor (anti-cAMP antibody labeled with europium cryptate) are added.
After 60 min at room temperature, the fluorescence transfer is measured at λex=337 nm and λem=620 and 665 nm using a microplate reader (Rubystar, BMG). The cAMP concentration is determined by dividing the signal measured at 665 nm by that measured at 620 nm (ratio).
The standard reference antagonist is AM 281, which is tested in each experiment at several concentrations to generate a concentration-response curve from which its IC50 value is calculated.

Test [2] addresses human adenosine A1 receptor (Homo sapiens (Human), UniProt P30542). As to the kind of experiment: Adenosine receptor inhibition binding assay, [3H]DPCPX, A1 receptor membranes. Particulars: 1 nM [3H]DPCPX, 25° C., 1 h, Ki from IC50 by Cheng-Prusoff. Summed up:
as §1

Chain of human adenosine A2A receptor (P29274 whole entry): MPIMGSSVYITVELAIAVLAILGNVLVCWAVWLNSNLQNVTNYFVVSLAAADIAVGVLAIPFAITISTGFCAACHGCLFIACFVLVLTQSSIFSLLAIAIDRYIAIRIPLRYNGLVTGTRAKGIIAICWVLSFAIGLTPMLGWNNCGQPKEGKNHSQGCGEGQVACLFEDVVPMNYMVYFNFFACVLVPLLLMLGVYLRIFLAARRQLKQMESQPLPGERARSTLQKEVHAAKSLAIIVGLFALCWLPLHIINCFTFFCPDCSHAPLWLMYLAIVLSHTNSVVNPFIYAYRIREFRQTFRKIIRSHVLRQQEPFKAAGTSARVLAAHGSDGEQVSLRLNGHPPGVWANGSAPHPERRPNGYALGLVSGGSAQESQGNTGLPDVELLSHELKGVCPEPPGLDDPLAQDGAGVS
Chain of human adenosine A1 receptor (P30542 whole entry): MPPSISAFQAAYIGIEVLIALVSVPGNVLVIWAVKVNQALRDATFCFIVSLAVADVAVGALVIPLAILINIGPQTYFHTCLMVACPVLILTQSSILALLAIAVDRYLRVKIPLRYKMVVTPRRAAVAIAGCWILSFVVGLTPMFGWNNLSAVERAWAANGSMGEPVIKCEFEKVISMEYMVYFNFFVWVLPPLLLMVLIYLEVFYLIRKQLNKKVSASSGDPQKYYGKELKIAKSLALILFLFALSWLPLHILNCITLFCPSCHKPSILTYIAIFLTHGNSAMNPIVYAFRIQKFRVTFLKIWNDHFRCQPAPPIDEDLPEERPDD
Chain of human CB1 receptor (P21554 whole entry): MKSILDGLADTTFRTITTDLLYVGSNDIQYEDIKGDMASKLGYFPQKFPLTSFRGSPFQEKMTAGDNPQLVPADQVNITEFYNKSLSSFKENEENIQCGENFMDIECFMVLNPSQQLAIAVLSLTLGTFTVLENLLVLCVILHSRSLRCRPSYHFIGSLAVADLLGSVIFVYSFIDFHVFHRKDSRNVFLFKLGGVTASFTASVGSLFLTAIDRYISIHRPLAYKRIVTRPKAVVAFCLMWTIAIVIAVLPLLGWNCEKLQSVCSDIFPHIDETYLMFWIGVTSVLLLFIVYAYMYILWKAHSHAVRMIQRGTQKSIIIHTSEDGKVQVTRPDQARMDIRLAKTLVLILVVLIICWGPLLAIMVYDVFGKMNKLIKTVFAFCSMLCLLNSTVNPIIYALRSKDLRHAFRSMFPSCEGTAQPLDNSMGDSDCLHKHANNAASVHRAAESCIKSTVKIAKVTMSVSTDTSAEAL

For orientation: IC50 means the midpoint of a concentration-inhibition curve. For the compound `Cc1ocnc1Cn1nc2c(-c3cc(CO)nc(C(F)(F)F)c3)c(-c3ccccc3)nc(N)n2c1=O` [Example 1-66, 5-amino-8-[2-(hydroxymethyl)-6-(trifluoromethyl)-4-pyridyl]-2-[(5-methyloxazol-4-yl)methyl]-7-phenyl-[1,2,4]triazolo[4,3-c]pyrimidin-3-one], the “A2A pKi” value in test [1] was 9.7. Further, the concentration for half-maximal inhibition (IC50) on human CB1 receptor was greater than 100 µM. For the same compound, the “A1 pKi” value in test [2] is 7.5.

For `Cc1cc(-c2c(-c3ccccc3)nc(N)n3c(=O)n(Cc4ccn(C)n4)nc23)cc(C)n1` [Example 1-16, 5-amino-8-(2,6-dimethyl-4-pyridyl)-2-[(1-methylpyrazol-3-yl)methyl]-7-phenyl-[1,2,4]triazolo[4,3-c]pyrimidin-3-one], the “A2A pKi” value in test [1] is 9.4. Moreover, at human CB1 receptor, the IC50 is greater than 100 µM. The “A1 pKi” value in test [2] was 7.2.

For `Cn1ccnc1Cn1nc2c(-c3cc(Cl)nc(CO)c3)c(-c3ccc(F)cc3)nc(N)n2c1=O` [Example 1-58, 5-amino-8-[2-chloro-6-(hydroxymethyl)-4-pyridyl]-7-(4-fluorophenyl)-2-[(1-methylimidazol-2-yl)methyl]-[1,2,4]triazolo[4,3-c]pyrimidin-3-one], the “A2A pKi” value in test [1] is reported as 9.5. The IC50 at human CB1 receptor is greater than 100 µM. Moreover, the “A1 pKi” value in test [2] turned out to be 7.1.

With `COc1cc(-c2c(-c3ccccc3)nc(N)n3c(=O)n(C[C@H]4CCCO4)nc23)cc(CO)n1` [Example 2-35, 5-amino-8-[2-(hydroxymethyl)-6-methoxy-4-pyridyl]-7-phenyl-2-[[(2R)-tetrahydrofuran-2-yl]methyl]-[1,2,4]triazolo[4,3-c]pyrimidin-3-one], the “A2A pKi” value in test [1] was found to be 9.2. The IC50 on human CB1 receptor was greater than 100 µM. Further, the “A1 pKi” value in test [2] was 5.9.

Turning to `Cc1cc(-c2c(-c3ccccc3)nc(N)n3c(=O)n(Cc4nonc4C)nc23)cc(CO)n1` [Example 1-46, 5-amino-8-[2-(hydroxymethyl)-6-methyl-4-pyridyl]-2-[(4-methyl-1,2,5-oxadiazol-3-yl)methyl]-7-phenyl-[1,2,4]triazolo[4,3-c]pyrimidin-3-one], the “A2A pKi” value in test [1] is on record as 9.3. Also, the 50% inhibitory concentration (IC50) on human CB1 receptor was greater than 100 µM. Further, in test [2], the “A1 pKi” value came out at 6.4.

With `COc1cc(-c2c(-c3ccccc3)nc(N)n3c(=O)n(Cc4nccn4C)nc23)cc(C)n1` [Example 1-38, 5-amino-8-(2-methoxy-6-methyl-4-pyridyl)-2-[(1-methylimidazol-2-yl)methyl]-7-phenyl-[1,2,4]triazolo[4,3-c]pyrimidin-3-one], in test [1], the “A2A pKi” value was found to be 9.5. In addition, the IC50 at human CB1 receptor was greater than 100 µM. Moreover, the “A1 pKi” value in test [2] was determined as 7.8.

As for `Cc1cc(-c2c(-c3ccccc3)nc(N)n3c(=O)n(Cc4nccn4C)nc23)cc(C)[n+]1[O-]` [Example 1-36, 5-amino-8-(2,6-dimethyl-1-oxido-pyridin-1-ium-4-yl)-2-[(1-methylimidazol-2-yl)methyl]-7-phenyl-[1,2,4]triazolo[4,3-c]pyrimidin-3-one], in test [1], the “A2A pKi” value worked out at 8.0. On human CB1 receptor, the IC50 was greater than 100 µM. For the same compound, in test [2], the “A1 pKi” value amounted to 7.3.

On to `Cc1cc(-c2c(-c3ccccc3)nc(N)n3c(=O)n(C(CN)C4CCOC4)nc23)cc(C)n1` (stereo not drawn) [Example 2-15, 5-amino-2-(2-amino-1-tetrahydrofuran-3-yl-ethyl)-8-(2,6-dimethyl-4-pyridyl)-7-phenyl-[1,2,4]triazolo[4,3-c]pyrimidin-3-one], for which the “A2A pKi” value in test [1] turned out to be 7.5. Further, the IC50 on human CB1 receptor is greater than 100 µM. Also, in test [2], the “A1 pKi” value turned out to be 5.7.

On to `Nc1nc(-c2ccccc2)c(-c2cc(CO)nc(C(F)(F)F)c2)c2nn(C[C@H]3CCCO3)c(=O)n12` [Example 2-38, 5-amino-8-[2-(hydroxymethyl)-6-(trifluoromethyl)-4-pyridyl]-7-phenyl-2-[[(2R)-tetrahydrofuran-2-yl]methyl]-[1,2,4]triazolo[4,3-c]pyrimidin-3-one], for which, in test [1], the “A2A pKi” value was determined as 8.9. The IC50 on human CB1 receptor is greater than 100 µM. For the same compound, in test [2], the “A1 pKi” value stood at 6.3.

Consider `COc1cc(-c2c(-c3ccccc3)nc(N)n3c(=O)n(Cc4nccn4C)nc23)cc(CO)n1` [Example 1-61, 5-amino-8-[2-(hydroxymethyl)-6-methoxy-4-pyridyl]-2-[(1-methylimidazol-2-yl)methyl]-7-phenyl-[1,2,4]triazolo[4,3-c]pyrimidin-3-one], for which the “A2A pKi” value in test [1] is 9.5. The IC50 on human CB1 receptor is greater than 100 µM. In test [2], the “A1 pKi” value was 6.8.

As to `Cn1ccnc1Cn1nc2c(-c3cc(CO)nc(C(F)(F)F)c3)c(-c3ccccc3)nc(N)n2c1=O` [Example 1-67, 5-amino-8-[2-(hydroxymethyl)-6-(trifluoromethyl)-4-pyridyl]-2-[(1-methylimidazol-2-yl)methyl]-7-phenyl-[1,2,4]triazolo[4,3-c]pyrimidin-3-one], the “A2A pKi” value in test [1] is 10.0. Besides, the IC50 at human CB1 receptor is greater than 100 µM. Besides, the “A1 pKi” value in test [2] was found to be 8.0.

On to `Cc1cc(-c2c(-c3ccccc3)nc(N)n3c(=O)n(C[C@H]4C[C@H](F)CN4)nc23)cc(C)n1` [Example 2-18, 5-amino-8-(2,6-dimethyl-4-pyridyl)-2-[[(2R,4S)-4-fluoropyrrolidin-2-yl]methyl]-7-phenyl-[1,2,4]triazolo[4,3-c]pyrimidin-3-one], for which, in test [1], the “A2A pKi” value was 8.2. Besides, the “A1 pKi” value in test [2] is given as 6.4.

As to `Cc1cc(-c2c(-c3ccccc3)nc(N)n3c(=O)n(Cc4nccn4C)nc23)cc(CO)n1` [Example 1-41, 5-amino-8-[2-(hydroxymethyl)-6-methyl-4-pyridyl]-2-[(1-methylimidazol-2-yl)methyl]-7-phenyl-[1,2,4]triazolo[4,3-c]pyrimidin-3-one], the “A2A pKi” value in test [1] is recorded as 9.1. Besides, the “A1 pKi” value in test [2] is 7.2.

For `Cc1cc(-c2c(-c3ccccc3)nc(N)n3c(=O)n(Cc4noc(C)n4)nc23)cc(C)n1` [Example 1-20, 5-amino-8-(2,6-dimethyl-4-pyridyl)-2-[(5-methyl-1,2,4-oxadiazol-3-yl)methyl]-7-phenyl-[1,2,4]triazolo[4,3-c]pyrimidin-3-one], in test [1], the “A2A pKi” value is given as 8.7. Further, the “A1 pKi” value in test [2] is listed as 6.6.

As to `Cc1cc(-c2c(-c3ccccc3)nc(N)n3c(=O)n(Cc4nn[nH]n4)nc23)cc(C)n1` [Example 1-26, 5-amino-8-(2,6-dimethyl-4-pyridyl)-7-phenyl-2-(2H-tetrazol-5-ylmethyl)-[1,2,4]triazolo[4,3-c]pyrimidin-3-one], the “A2A pKi” value in test [1] turned out to be 6.4. In addition, in test [2], the “A1 pKi” value is less than 5.4.

Consider `Cc1cc(-c2c(-c3ccccc3)nc(N)n3c(=O)n(Cc4ccon4)nc23)cc(C)n1` [Example 1-13, 5-amino-8-(2,6-dimethyl-4-pyridyl)-2-(isoxazol-3-ylmethyl)-7-phenyl-[1,2,4]triazolo[4,3-c]pyrimidin-3-one], for which, in test [1], the “A2A pKi” value was determined as 8.9. The “A1 pKi” value in test [2] is 6.8.

As to `Cc1cc(-c2c(-c3ccccc3)nc(N)n3c(=O)n(Cc4ncoc4C)nc23)cc(CO)n1` [Example 1-39, 5-amino-8-[2-(hydroxymethyl)-6-methyl-4-pyridyl]-2-[(5-methyloxazol-4-yl)methyl]-7-phenyl-[1,2,4]triazolo[4,3-c]pyrimidin-3-one], in test [1], the “A2A pKi” value was determined as 9.5. The “A1 pKi” value in test [2] amounted to 6.8.

`Cc1ocnc1Cn1nc2c(-c3cc(Cl)nc(CO)c3)c(-c3ccccc3)nc(N)n2c1=O` [Example 1-54, 5-amino-8-[2-chloro-6-(hydroxymethyl)-4-pyridyl]-2-[(5-methyloxazol-4-yl)methyl]-7-phenyl-[1,2,4]triazolo[4,3-c]pyrimidin-3-one]: the “A2A pKi” value in test [1] is reported as 9.7. The “A1 pKi” value in test [2] is 7.2.

In the case of `[2H]c1c([2H])c([2H])c(-c2nc(N)n3c(=O)n(Cc4cocn4)nc3c2-c2cc(C)nc(CO)c2)c([2H])c1[2H]` [Example 1-49, 5-amino-8-[2-(hydroxymethyl)-6-methyl-4-pyridyl]-2-(oxazol-4-ylmethyl)-7-(2,3,4,5,6-pentadeuteriophenyl)-[1,2,4]triazolo[4,3-c]pyrimidin-3-one], the Ki in test [1] (read-out: A2A pKi (converted)) was 0.00158 µM; in test [2] (read-out: A1 pKi (converted)), 0.316 µM.

Turning to `Cc1cc(-c2c(-c3ccccc3)nc(N)n3c(=O)n(C4CCN(C(=O)OC(C)(C)C)C4)nc23)cc(C)n1` (stereo not drawn) [Example 2-1, tert-butyl 3-[5-amino-8-(2,6-dimethyl-4-pyridyl)-3-oxo-7-phenyl-[1,2,4]triazolo[4,3-c]pyrimidin-2-yl]pyrrolidine-1-carboxylate], the “A2A pKi” value in test [1] stood at 7.7. Also, the “A1 pKi” value in test [2] was found to be 6.8.
